One assay addresses T1, CAMK2DA (Homo sapiens, UniProt Q13557).
T1 construct: purchased in-house DSF kinase panel (SGC-style construct names; the trailing letter is the construct ID)
Briefly: DSF Tm panel. The class given is binding. To be noted: 10 μM compound.

The next assay concerns the target T2, CDKL1A (Homo sapiens, UniProt Q00532).
T2 construct: purchased in-house DSF kinase panel (SGC-style construct names; the trailing letter is the construct ID)
Briefly: DSF Tm panel. The class given is binding. To be noted: 10 μM compound.

Assay [1] concerns the target T3, SLK (Homo sapiens, UniProt Q9H2G2). Briefly: DSF Tm panel. The class given is binding. Also noted: purchased in-house DSF kinase panel (SGC-style construct names; the trailing letter is the construct ID). To be noted: 10 μM compound.
Another assay has as its target T4, DAPK3 (DAPK3A) (Homo sapiens, UniProt O43293).
T4 construct: purchased in-house DSF kinase panel (SGC-style construct names; the trailing letter is the construct ID)
Briefly: DSF Tm panel. To be noted: 10 μM compound. The format is binding.

The test system of the next assay is CDC42BPAA. Briefly: DSF Tm panel. The class given is binding. To be noted: 10 μM compound.
For the next assay, the target named is T5, STK10 (Homo sapiens, UniProt O94804).
T5 construct: purchased in-house DSF kinase panel (SGC-style construct names; the trailing letter is the construct ID)
Briefly: PhosphoSens in vitro activity assay. The class given is biochemical. To be noted: ATP 160 μM.

A further assay concerns the target T6, MAP3K5A (Homo sapiens, UniProt Q99683).
T6 construct: purchased in-house DSF kinase panel (SGC-style construct names; the trailing letter is the construct ID)
Briefly: DSF Tm panel. To be noted: 10 μM compound. The format is binding.

The target of another assay is T7, MARK3A (Homo sapiens, UniProt P27448).
T7 construct: purchased in-house DSF kinase panel (SGC-style construct names; the trailing letter is the construct ID)
Briefly: DSF Tm panel. The class given is binding. To be noted: 10 μM compound.

A further assay deals with T8, MAPK14A (Homo sapiens, UniProt Q16539).
T8 construct: purchased in-house DSF kinase panel (SGC-style construct names; the trailing letter is the construct ID)
Briefly: DSF Tm panel. The class given is binding. To be noted: 10 μM compound.

In a further assay the target is T9, EPHA2 (EPHA2A) (Homo sapiens, UniProt P29317).
T9 construct: purchased in-house DSF kinase panel (SGC-style construct names; the trailing letter is the construct ID)
T9 sequence (P29317 596-900): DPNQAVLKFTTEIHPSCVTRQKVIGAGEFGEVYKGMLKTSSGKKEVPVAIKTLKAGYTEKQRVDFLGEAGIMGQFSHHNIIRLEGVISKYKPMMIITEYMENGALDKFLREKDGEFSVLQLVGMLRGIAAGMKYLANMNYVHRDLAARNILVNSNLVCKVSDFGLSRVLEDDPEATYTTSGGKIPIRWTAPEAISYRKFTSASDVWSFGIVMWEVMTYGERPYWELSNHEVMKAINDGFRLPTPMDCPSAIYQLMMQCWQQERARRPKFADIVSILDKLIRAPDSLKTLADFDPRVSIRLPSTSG
Briefly: DSF Tm panel. The class given is binding. To be noted: 10 μM compound.

Another assay has as its target T10, FGFR2A (Homo sapiens, UniProt P21802).
T10 construct: purchased in-house DSF kinase panel (SGC-style construct names; the trailing letter is the construct ID)
Briefly: DSF Tm panel. The class given is binding. To be noted: 10 μM compound.

The target in a further assay is T11, SRPK1A (Homo sapiens, UniProt Q96SB4).
T11 construct: purchased in-house DSF kinase panel (SGC-style construct names; the trailing letter is the construct ID)
Briefly: DSF Tm panel. The format is binding. To be noted: 10 μM compound.

A further assay concerns the target T12, DCAMKL1A (Homo sapiens, UniProt O15075).
T12 construct: purchased in-house DSF kinase panel (SGC-style construct names; the trailing letter is the construct ID)
T12 sequence (O15075 372-649): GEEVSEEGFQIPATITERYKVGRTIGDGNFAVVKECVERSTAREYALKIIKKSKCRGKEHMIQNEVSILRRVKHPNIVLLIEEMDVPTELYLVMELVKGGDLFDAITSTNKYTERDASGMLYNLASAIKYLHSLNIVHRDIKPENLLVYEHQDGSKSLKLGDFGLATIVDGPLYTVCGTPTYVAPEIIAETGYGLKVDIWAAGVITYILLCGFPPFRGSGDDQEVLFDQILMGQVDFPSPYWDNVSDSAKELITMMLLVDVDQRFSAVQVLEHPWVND
Briefly: DSF Tm panel. The format is binding. To be noted: 10 μM compound.

The next assay deals with T13, FESA (Homo sapiens, UniProt P07332).
T13 construct: purchased in-house DSF kinase panel (SGC-style construct names; the trailing letter is the construct ID)
Briefly: DSF Tm panel. The format is binding. To be noted: 10 μM compound.

The next assay deals with T14, MAPK10A (Homo sapiens, UniProt P53779).
T14 construct: purchased in-house DSF kinase panel (SGC-style construct names; the trailing letter is the construct ID)
Briefly: DSF Tm panel. The class given is binding. To be noted: 10 μM compound.

Another assay addresses T15, STK4 (STK4A) (Homo sapiens, UniProt Q13043).
T15 construct: purchased in-house DSF kinase panel (SGC-style construct names; the trailing letter is the construct ID)
T15 sequence (Q13043 1-311): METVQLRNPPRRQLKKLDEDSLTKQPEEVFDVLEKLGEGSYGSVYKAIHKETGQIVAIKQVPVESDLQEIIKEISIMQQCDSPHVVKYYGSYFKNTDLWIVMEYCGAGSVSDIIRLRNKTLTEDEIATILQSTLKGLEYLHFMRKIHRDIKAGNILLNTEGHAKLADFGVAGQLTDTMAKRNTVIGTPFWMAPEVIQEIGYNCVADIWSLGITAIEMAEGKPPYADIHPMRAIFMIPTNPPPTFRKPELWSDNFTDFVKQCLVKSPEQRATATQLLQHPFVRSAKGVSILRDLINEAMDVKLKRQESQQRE
Briefly: DSF Tm panel. To be noted: 10 μM compound. The class given is binding.

Another assay deals with T16, MAPK1A (Homo sapiens, UniProt P28482).
T16 construct: purchased in-house DSF kinase panel (SGC-style construct names; the trailing letter is the construct ID)
Briefly: DSF Tm panel. The format is binding. To be noted: 10 μM compound.

For a further assay, the target named is T17, DYRK1AA (Homo sapiens, UniProt Q13627).
T17 construct: purchased in-house DSF kinase panel (SGC-style construct names; the trailing letter is the construct ID)
Briefly: DSF Tm panel. The format is binding. To be noted: 10 μM compound.

Assay [2] addresses T3, SLK. Briefly: NanoBRET target engagement assay. The format is cell-based. Details: has a greater impact on the full-length protein than on the kinase domains; host or cells: HEK293T (ATCC CRL-3216). To be noted: HEK293T cells. On the technique in general: Bioluminescence resonance energy transfer reports proximity on the nanometre scale.
The target in another assay is T18, PIM1 (PIM1A) (Homo sapiens, UniProt P11309).
T18 construct: purchased in-house DSF kinase panel (SGC-style construct names; the trailing letter is the construct ID)
Briefly: DSF Tm panel. The class given is binding. To be noted: 10 μM compound.

Another assay deals with T19, BMP2KA (Homo sapiens, UniProt Q9NSY1).
T19 construct: purchased in-house DSF kinase panel (SGC-style construct names; the trailing letter is the construct ID)
Briefly: DSF Tm panel. The class given is binding. To be noted: 10 μM compound.

Another assay has as its target T20, MARK4A (Homo sapiens, UniProt Q96L34).
T20 construct: purchased in-house DSF kinase panel (SGC-style construct names; the trailing letter is the construct ID)
Briefly: DSF Tm panel. The class given is binding. To be noted: 10 μM compound.

The test system of a further assay is RPS6KA1A. Briefly: DSF Tm panel. To be noted: 10 μM compound. The format is binding.
Another assay concerns the target T21, VRK1A (Homo sapiens, UniProt Q99986).
T21 construct: purchased in-house DSF kinase panel (SGC-style construct names; the trailing letter is the construct ID)
T21 sequence (Q99986 1-396): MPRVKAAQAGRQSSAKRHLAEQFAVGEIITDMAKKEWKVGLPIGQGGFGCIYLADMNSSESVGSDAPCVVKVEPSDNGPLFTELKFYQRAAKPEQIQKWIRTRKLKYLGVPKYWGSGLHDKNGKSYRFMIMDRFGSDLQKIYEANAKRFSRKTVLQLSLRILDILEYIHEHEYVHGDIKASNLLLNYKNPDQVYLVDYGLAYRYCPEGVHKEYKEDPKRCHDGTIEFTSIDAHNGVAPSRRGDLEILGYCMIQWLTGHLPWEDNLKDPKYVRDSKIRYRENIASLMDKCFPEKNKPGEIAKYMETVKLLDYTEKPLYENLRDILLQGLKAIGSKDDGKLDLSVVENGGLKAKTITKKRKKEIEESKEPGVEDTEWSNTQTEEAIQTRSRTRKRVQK
Briefly: DSF Tm panel. To be noted: 10 μM compound. The format is binding.

Where only a bound is given, the exact number is not on record here.

T6 sequence (Q99683 659-951): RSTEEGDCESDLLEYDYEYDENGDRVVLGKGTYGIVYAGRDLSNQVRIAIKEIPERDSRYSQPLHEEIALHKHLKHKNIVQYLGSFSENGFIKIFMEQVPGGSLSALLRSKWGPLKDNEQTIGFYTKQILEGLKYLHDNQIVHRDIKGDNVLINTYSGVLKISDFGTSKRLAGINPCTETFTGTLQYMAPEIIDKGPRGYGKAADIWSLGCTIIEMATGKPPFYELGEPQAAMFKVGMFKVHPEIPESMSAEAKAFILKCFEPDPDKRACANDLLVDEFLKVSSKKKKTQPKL
T4 sequence (O43293 whole entry): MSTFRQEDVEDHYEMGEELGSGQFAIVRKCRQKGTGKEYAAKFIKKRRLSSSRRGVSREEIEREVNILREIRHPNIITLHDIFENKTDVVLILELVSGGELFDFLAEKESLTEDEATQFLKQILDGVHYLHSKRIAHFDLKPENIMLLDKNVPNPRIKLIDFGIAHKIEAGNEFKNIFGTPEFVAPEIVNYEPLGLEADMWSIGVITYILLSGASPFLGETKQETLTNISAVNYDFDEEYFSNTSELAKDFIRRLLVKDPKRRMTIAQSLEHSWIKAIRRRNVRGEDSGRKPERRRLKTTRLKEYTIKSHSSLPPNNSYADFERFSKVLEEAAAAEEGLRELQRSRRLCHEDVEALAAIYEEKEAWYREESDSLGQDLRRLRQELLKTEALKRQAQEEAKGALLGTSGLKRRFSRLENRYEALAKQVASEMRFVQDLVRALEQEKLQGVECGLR
T20 sequence (Q96L34 59-310): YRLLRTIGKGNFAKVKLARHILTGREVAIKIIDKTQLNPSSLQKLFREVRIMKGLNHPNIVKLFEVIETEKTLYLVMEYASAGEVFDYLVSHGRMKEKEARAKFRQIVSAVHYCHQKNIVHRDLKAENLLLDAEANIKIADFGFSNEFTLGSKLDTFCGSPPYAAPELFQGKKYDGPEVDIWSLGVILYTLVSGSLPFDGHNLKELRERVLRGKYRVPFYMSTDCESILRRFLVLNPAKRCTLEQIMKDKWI
T1 sequence (Q13557 11-309): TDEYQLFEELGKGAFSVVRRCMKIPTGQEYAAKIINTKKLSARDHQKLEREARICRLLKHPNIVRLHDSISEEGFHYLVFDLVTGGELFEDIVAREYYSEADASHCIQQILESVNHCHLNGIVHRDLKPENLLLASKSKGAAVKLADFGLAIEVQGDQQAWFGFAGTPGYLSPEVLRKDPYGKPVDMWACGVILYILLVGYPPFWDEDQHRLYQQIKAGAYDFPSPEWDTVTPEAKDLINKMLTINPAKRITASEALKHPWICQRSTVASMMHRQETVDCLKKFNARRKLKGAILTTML
T16 sequence (P28482 whole entry): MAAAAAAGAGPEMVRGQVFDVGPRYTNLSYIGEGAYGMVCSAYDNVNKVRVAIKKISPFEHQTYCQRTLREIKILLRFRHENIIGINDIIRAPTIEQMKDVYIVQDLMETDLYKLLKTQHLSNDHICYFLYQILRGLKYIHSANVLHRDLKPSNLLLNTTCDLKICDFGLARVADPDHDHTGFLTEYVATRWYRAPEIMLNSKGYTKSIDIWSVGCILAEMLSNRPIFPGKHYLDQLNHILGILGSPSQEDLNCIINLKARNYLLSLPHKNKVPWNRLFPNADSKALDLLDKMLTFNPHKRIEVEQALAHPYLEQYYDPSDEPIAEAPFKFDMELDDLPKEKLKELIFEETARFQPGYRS
T14 sequence (P53779 39-402): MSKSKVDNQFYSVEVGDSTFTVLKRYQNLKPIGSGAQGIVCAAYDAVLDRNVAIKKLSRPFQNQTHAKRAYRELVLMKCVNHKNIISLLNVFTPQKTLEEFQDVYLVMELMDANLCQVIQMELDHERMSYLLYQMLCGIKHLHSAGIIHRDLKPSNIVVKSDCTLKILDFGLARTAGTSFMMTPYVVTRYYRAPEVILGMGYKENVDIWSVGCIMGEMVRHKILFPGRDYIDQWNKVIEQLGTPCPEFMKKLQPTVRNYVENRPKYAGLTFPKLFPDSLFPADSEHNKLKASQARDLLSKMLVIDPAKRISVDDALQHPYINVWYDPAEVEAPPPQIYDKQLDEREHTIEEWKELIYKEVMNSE
T13 sequence (P07332 whole entry): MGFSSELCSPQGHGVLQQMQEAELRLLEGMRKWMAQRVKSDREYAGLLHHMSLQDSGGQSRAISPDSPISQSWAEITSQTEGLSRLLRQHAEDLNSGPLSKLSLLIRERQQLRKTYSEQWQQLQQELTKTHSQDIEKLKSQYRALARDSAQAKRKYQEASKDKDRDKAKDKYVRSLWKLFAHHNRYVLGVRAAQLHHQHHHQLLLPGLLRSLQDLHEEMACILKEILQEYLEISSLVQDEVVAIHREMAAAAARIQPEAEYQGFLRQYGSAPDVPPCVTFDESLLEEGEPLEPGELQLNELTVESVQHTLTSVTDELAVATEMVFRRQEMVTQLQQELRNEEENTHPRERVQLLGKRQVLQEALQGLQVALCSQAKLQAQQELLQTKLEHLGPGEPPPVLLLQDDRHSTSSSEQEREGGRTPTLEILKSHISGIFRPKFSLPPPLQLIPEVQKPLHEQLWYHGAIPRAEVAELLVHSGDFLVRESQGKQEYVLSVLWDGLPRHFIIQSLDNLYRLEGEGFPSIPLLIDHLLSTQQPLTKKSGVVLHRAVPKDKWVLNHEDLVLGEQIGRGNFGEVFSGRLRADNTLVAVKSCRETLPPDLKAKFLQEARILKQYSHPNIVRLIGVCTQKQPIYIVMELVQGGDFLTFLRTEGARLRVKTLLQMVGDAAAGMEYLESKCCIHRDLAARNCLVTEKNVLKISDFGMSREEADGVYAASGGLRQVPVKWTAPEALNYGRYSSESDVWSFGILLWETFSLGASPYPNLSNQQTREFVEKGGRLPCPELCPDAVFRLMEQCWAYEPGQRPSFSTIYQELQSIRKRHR
T7 sequence (P27448 56-307): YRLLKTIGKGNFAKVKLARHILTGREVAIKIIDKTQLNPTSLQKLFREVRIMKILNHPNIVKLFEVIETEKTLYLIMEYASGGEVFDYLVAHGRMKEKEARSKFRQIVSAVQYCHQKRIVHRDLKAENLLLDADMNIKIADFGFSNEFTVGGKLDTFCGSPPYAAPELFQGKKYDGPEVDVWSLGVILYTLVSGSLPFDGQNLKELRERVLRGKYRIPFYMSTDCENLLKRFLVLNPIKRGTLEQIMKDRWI
T2 sequence (Q00532 1-303): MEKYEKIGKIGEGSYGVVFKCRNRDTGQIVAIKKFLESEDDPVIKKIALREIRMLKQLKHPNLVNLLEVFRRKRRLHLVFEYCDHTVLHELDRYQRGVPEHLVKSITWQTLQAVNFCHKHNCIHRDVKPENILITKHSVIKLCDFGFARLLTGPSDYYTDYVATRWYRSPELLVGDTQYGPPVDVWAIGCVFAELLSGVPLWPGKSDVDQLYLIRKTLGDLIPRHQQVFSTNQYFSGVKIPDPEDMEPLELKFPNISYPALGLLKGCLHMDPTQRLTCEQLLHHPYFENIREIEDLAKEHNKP
T10 sequence (P21802 458-770): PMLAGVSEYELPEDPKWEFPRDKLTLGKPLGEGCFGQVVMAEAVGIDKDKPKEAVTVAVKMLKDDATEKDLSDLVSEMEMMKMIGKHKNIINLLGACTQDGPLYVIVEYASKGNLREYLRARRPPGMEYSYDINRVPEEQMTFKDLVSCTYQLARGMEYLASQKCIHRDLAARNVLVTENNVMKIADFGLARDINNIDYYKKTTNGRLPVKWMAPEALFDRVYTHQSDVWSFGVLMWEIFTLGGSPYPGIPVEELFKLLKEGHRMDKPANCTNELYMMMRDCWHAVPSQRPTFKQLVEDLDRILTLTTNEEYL
T18 sequence (P11309 whole entry): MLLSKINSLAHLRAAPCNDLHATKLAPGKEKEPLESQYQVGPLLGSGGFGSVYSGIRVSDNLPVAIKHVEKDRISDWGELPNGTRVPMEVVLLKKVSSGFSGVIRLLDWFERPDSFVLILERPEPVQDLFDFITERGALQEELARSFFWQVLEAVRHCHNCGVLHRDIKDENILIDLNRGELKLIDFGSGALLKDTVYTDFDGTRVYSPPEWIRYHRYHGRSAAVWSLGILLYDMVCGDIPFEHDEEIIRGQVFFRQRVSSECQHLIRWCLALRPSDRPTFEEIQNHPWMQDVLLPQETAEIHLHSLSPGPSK
T5 sequence (O94804 18-317 limits assumed): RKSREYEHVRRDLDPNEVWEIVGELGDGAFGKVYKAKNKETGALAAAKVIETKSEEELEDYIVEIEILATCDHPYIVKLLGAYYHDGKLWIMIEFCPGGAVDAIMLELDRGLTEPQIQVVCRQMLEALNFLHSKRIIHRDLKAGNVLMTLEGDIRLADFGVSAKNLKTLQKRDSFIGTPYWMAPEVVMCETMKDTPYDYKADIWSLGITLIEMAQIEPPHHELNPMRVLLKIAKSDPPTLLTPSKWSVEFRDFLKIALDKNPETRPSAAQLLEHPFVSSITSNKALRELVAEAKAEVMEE
T19 sequence (Q9NSY1 38-345): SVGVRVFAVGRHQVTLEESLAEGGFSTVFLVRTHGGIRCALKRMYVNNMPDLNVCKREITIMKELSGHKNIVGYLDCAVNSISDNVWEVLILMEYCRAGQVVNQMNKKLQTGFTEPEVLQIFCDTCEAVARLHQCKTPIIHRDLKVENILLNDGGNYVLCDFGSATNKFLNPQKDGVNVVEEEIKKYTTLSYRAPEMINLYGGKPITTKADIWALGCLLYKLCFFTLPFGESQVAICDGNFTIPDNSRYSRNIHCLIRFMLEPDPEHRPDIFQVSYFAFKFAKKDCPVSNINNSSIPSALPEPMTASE

Turning to `O=C(NCc1ccccc1Cl)Nc1ccc2cc1OCCOCCNc1ccn3ncc-2c3n1` [compound 17], the ΔTm (commonly the shift of the melting midpoint relative to a reference) at 10 µM on CAMK2DA was 0.4 °C; at CDKL1A it was 0.4 °C; at SLK [1] it was 4.8 °C; on DAPK3 (DAPK3A), 0.7 °C; on MAP3K5A, 1 °C; on MARK3A, 0.8 °C. For the same compound, the ΔTm at 10 µM was 0 °C at MAPK14A; 0.5 °C on EPHA2 (EPHA2A); 1.7 °C at FGFR2A; 0 °C on SRPK1A; 0.7 °C at DCAMKL1A; 0.2 °C at FESA. For the same compound, the ΔTm at 10 µM at MAPK10A was 0.2 °C; at STK4 (STK4A) it was 4.1 °C; at MAPK1A it was 0.3 °C; on DYRK1AA, -1.3 °C; on PIM1 (PIM1A) it was 1.5 °C; on BMP2KA, 9.2 °C. Also, the thermal shift (ΔTm) at 10 µM at MARK4A is 2.2 °C; at VRK1A it was 0.1 °C. Also, the “ΔTm CDC42BPAA” value with CDC42BPAA is 0,1 °C. For the same compound, half-maximal inhibition on STK10 (IC50) required 1530 ± 260 nM. Besides, the half-maximal effective concentration (EC50) – broadly, the concentration needed to bring the measured effect to its halfway point – at SLK [2] is over 50 µM. In the assay with RPS6KA1A, the “ΔTm RPS6KA1A” value is 1,2 °C.
For the compound `O=C(NCc1cccc(Cl)c1)Nc1ccc2cc1OCCOCCNc1ccn3ncc-2c3n1` [compound 18], the ΔTm at 10 µM on CAMK2DA was 0.5 °C; at CDKL1A, -0.1 °C; at SLK [1] it was 4.7 °C; at DAPK3 (DAPK3A), 1.3 °C; on MAP3K5A, 1.6 °C; at MARK3A, 0.7 °C. For the same compound, the ΔTm at 10 µM was 0.3 °C at MAPK14A; 0.6 °C at EPHA2 (EPHA2A); 3.3 °C at FGFR2A; -0.3 °C on SRPK1A; -0.1 °C on DCAMKL1A; 0.1 °C on FESA. The ΔTm at 10 µM at MAPK10A came out at 0.6 °C; at STK4 (STK4A) it was 4.5 °C; on MAPK1A, 0.7 °C; on DYRK1AA, 1.1 °C; on PIM1 (PIM1A), 3.2 °C; on BMP2KA, 8.7 °C. The values for the ΔTm at 10 µM at MARK4A and at VRK1A were 1.4 °C and 0.3 °C, respectively. Further, in the assay on CDC42BPAA, the “ΔTm CDC42BPAA” value was 0,0 °C. Moreover, it took 2570 ± 110 nM to reach half-maximal inhibition against STK10 (IC50). The EC50 at SLK [2] is over 50 µM. The “ΔTm RPS6KA1A” value in the assay with RPS6KA1A is 0,7 °C.
For the compound `O=C(NCc1ccc(Cl)cc1)Nc1ccc2cc1OCCOCCNc1ccn3ncc-2c3n1` [compound 19], the ΔTm at 10 µM is -0.1 °C at CAMK2DA; 0.3 °C on CDKL1A; 5.2 °C at SLK [1]; 0.9 °C at DAPK3 (DAPK3A); 1.4 °C at MAP3K5A; 0.2 °C at MARK3A. Moreover, the ΔTm at 10 µM on MAPK14A stood at 0.1 °C; at EPHA2 (EPHA2A), 0.2 °C; on FGFR2A it was 3.7 °C; at SRPK1A, 0.2 °C; on DCAMKL1A it was 0 °C; on FESA it was 0.4 °C. The ΔTm at 10 µM at MAPK10A is 0.8 °C; on STK4 (STK4A) it was 5.5 °C; at MAPK1A it was 0.1 °C; on DYRK1AA, -1 °C; at PIM1 (PIM1A) it was 1.8 °C; at BMP2KA, 9.8 °C. Also, the thermal shift (ΔTm) at 10 µM came out at 2 °C on MARK4A and 0.1 °C on VRK1A. In addition, the “ΔTm CDC42BPAA” value in the assay on CDC42BPAA was 0,0 °C. For the same compound, half-maximal inhibition at STK10 (IC50) was put at 950 ± 120 nM. In addition, the 50% effective concentration (EC50) on SLK [2] is over 50 µM. The “ΔTm RPS6KA1A” value in the assay with RPS6KA1A was 0,4 °C.
